Measurements as given in PMC6979384, “Characterization of the plant homeodomain (PHD) reader family for their histone tail interactions” (Epigenetics & Chromatin, 2020).

How the values were obtained:
Assay in all cases: Histone peptide microarray
Format in all cases: binding, human
CHD5 (PCC) = details: sheet "Array Heatmap", total n = 4; for Array Heatmap value (peptide array signal): CHD5 (PCC), each array performed twice
In short: (§1)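 GST-tagged PHD finger readers were expressed, purified and applied at 0.5 μM to a microarray of 293 synthetic histone peptides carrying single or combinatorial PTMs, using an optimized protocol. Binding signals are averages with standard deviation from 4 replicates.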

BPTF (PB) = details: sheet "Array Heatmap", total n = 4; for Array Heatmap value (peptide array signal): BPTF (PB), each array performed twice
In short: as §1

TAF3 = details: sheet "Array Heatmap", total n = 4; for Array Heatmap value (peptide array signal): TAF3, each array performed twice
In short: as §1

ING5 = details: sheet "Array Heatmap", total n = 4; for Array Heatmap value (peptide array signal): ING5, each array performed twice
In short: as §1

PHF23 = details: sheet "Array Heatmap", total n = 4; for Array Heatmap value (peptide array signal): PHF23, each array performed twice
In short: as §1

PHF21A = details: sheet "Array Heatmap", total n = 4; for Array Heatmap value (peptide array signal): PHF21A, each array performed twice
In short: as §1

KDM5A (3) = details: sheet "Array Heatmap", total n = 4; for Array Heatmap value (peptide array signal): KDM5A (3), each array performed twice
In short: as §1

ING3 = details: sheet "Array Heatmap", total n = 4; for Array Heatmap value (peptide array signal): ING3, each array performed twice
In short: as §1

KDM5A (1) = details: sheet "Array Heatmap", total n = 4; for Array Heatmap value (peptide array signal): KDM5A (1), each array performed twice
In short: as §1

BAZ2B = details: sheet "Array Heatmap", total n = 4; for Array Heatmap value (peptide array signal): BAZ2B, each array performed twice
In short: as §1

KDM7A = details: sheet "Array Heatmap", total n = 4; for Array Heatmap value (peptide array signal): KDM7A, each array performed twice
In short: as §1

PHF8 = details: sheet "Array Heatmap", total n = 4; for Array Heatmap value (peptide array signal): PHF8, each array performed twice
In short: as §1

DIDO1 = details: sheet "Array Heatmap", total n = 4; for Array Heatmap value (peptide array signal): DIDO1, each array performed twice
In short: as §1

ING2 = details: sheet "Array Heatmap", total n = 4; for Array Heatmap value (peptide array signal): ING2, each array performed twice
In short: as §1

MLL5 = details: sheet "Array Heatmap", total n = 4; for Array Heatmap value (peptide array signal): MLL5, each array performed twice
In short: as §1

KDM5B (1) = details: sheet "Array Heatmap", total n = 4; for Array Heatmap value (peptide array signal): KDM5B (1), each array performed twice
In short: as §1

KDM4C (TTP) = details: sheet "Array Heatmap", total n = 4; for Array Heatmap value (peptide array signal): KDM4C (TTP), each array performed twice
In short: as §1

CHD5 (PPCC) = details: sheet "Array Heatmap", total n = 4; for Array Heatmap value (peptide array signal): CHD5 (PPCC), each array performed twice
In short: as §1

CHD4 (PPCC) = details: sheet "Array Heatmap", total n = 4; for Array Heatmap value (peptide array signal): CHD4 (PPCC), each array performed twice
In short: as §1

DPF2 (PPC2W2) = details: sheet "Array Heatmap", total n = 4; for Array Heatmap value (peptide array signal): DPF2 (PPC2W2), each array performed twice
In short: as §1

PHRF1 (RP) = details: sheet "Array Heatmap", total n = 4; for Array Heatmap value (peptide array signal): PHRF1 (RP), each array performed twice
In short: as §1

KDM5B (3) = details: sheet "Array Heatmap", total n = 4; for Array Heatmap value (peptide array signal): KDM5B (3), each array performed twice
In short: as §1

PHF13 = details: sheet "Array Heatmap", total n = 4; for Array Heatmap value (peptide array signal): PHF13, each array performed twice
In short: as §1

TRIM66 (PB) = details: sheet "Array Heatmap", total n = 4; for Array Heatmap value (peptide array signal): TRIM66 (PB), each array performed twice
In short: as §1

ING1 = details: sheet "Array Heatmap", total n = 4; for Array Heatmap value (peptide array signal): ING1, each array performed twice
In short: as §1

RAG2 = details: sheet "Array Heatmap", total n = 4; for Array Heatmap value (peptide array signal): RAG2, each array performed twice
In short: as §1

MORC3 (CW) = details: sheet "Array Heatmap", total n = 4; for Array Heatmap value (peptide array signal): MORC3 (CW), each array performed twice
In short: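 Purified PHD finger domains fused to GST are screened against 293 synthetic histone peptides bearing one or several post-translational modifications. The protein is used at 0.5 μM, and the signal from four replicate arrays is averaged, with standard deviation given.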

PHF2 = details: sheet "Array Heatmap", total n = 4; for Array Heatmap value (peptide array signal): PHF2, each array performed twice
In short: as §1

ING4 = details: sheet "Array Heatmap", total n = 4; for Array Heatmap value (peptide array signal): ING4, each array performed twice
In short: as §1

SP140L = details: sheet "Array Heatmap", total n = 4; for Array Heatmap value (peptide array signal): SP140L, each array performed twice
In short: as §1

AIRE (PP) = details: sheet "Array Heatmap", total n = 4; for Array Heatmap value (peptide array signal): AIRE (PP), each array performed twice
In short: as §1

[1] = GST-tagged reader, histone peptide array

Substance: H3.3K18ac + K23ac + K27ac: H3.3 15-34
- Array Heatmap signal, CHD5 (PCC) (CHD5 (PCC); [1]): 0.7415
- Array Heatmap signal, BPTF (PB) (BPTF (PB); [1]): 0.2983
- Array Heatmap signal, TAF3 (TAF3; [1]): 0.2149
- Array Heatmap signal, ING5 (ING5; [1]): 0.2999
- Array Heatmap signal, PHF23 (PHF23; [1]): 0.5184
- Array Heatmap signal, PHF21A (PHF21A; [1]): 0.4029
- Array Heatmap signal, KDM5A (3) (KDM5A (3); [1]): 0.3827
- Array Heatmap signal, ING3 (ING3; [1]): 0.4284
- Array Heatmap signal, KDM5A (1) (KDM5A (1); [1]): 0.4013
- Array Heatmap signal, BAZ2B (BAZ2B; [1]): 0.3976
- Array Heatmap signal, KDM7A (KDM7A; [1]): 0.2948
- Array Heatmap signal, PHF8 (PHF8; [1]): 0.3485
- Array Heatmap signal, DIDO1 (DIDO1; [1]): 0.6174
- Array Heatmap signal, ING2 (ING2; [1]): 0.5898
- Array Heatmap signal, MLL5 (MLL5; [1]): 0.5276
- Array Heatmap signal, KDM5B (1) (KDM5B (1); [1]): 0.6049
- Array Heatmap signal, KDM4C (TTP) (KDM4C (TTP); [1]): 0.4047
- Array Heatmap signal, CHD5 (PPCC) (CHD5 (PPCC); [1]): 0.4663
- Array Heatmap signal, CHD4 (PPCC) (CHD4 (PPCC); [1]): 0.4939
- Array Heatmap signal, DPF2 (PPC2W2) (DPF2 (PPC2W2); [1]): 0.5923
- Array Heatmap signal, PHRF1 (RP) (PHRF1 (RP); [1]): 0.3802
- Array Heatmap signal, KDM5B (3) (KDM5B (3); [1]): 0.4033
- Array Heatmap signal, PHF13 (PHF13; [1]): 0.5394
- Array Heatmap signal, TRIM66 (PB) (TRIM66 (PB); [1]): 0.509
- Array Heatmap signal, ING1 (ING1; [1]): 0.4856
- Array Heatmap signal, RAG2 (RAG2; [1]): 0.2141
- Array Heatmap signal, MORC3 (CW) (MORC3 (CW); [1]): 0.3178
- Array Heatmap signal, PHF2 (PHF2; [1]): 0.5078
- Array Heatmap signal, ING4 (ING4; [1]): 0.3863
- Array Heatmap signal, SP140L (SP140L; [1]): 0.3146
- Array Heatmap signal, AIRE (PP) (AIRE (PP); [1]): 0.3882

Substance: H3.3K27bhb (15-34): H3.3 15-34
- Array Heatmap value (peptide array signal) (CHD5 (PCC)): 0.7166
- Array Heatmap value (peptide array signal) (BPTF (PB)): 0.3432
- Array Heatmap value (peptide array signal) (TAF3): 0.2621
- Array Heatmap value (peptide array signal) (ING5): 0.34
- Array Heatmap value (peptide array signal) (PHF23): 0.5306
- Array Heatmap value (peptide array signal) (PHF21A): 0.4386
- Array Heatmap value (peptide array signal) (KDM5A (3)): 0.404
- Array Heatmap value (peptide array signal) (ING3): 0.4499
- Array Heatmap value (peptide array signal) (KDM5A (1)): 0.4361
- Array Heatmap value (peptide array signal) (BAZ2B): 0.4313
- Array Heatmap value (peptide array signal) (KDM7A): 0.312
- Array Heatmap value (peptide array signal) (PHF8): 0.363
- Array Heatmap value (peptide array signal) (DIDO1): 0.6388
- Array Heatmap value (peptide array signal) (ING2): 0.6144
- Array Heatmap value (peptide array signal) (MLL5): 0.5648
- Array Heatmap value (peptide array signal) (KDM5B (1)): 0.6279
- Array Heatmap value (peptide array signal) (KDM4C (TTP)): 0.4386
- Array Heatmap value (peptide array signal) (CHD5 (PPCC)): 0.5245
- Array Heatmap value (peptide array signal) (CHD4 (PPCC)): 0.5447
- Array Heatmap value (peptide array signal) (DPF2 (PPC2W2)): 0.6281
- Array Heatmap value (peptide array signal) (PHRF1 (RP)): 0.4098
- Array Heatmap value (peptide array signal) (KDM5B (3)): 0.4143
- Array Heatmap value (peptide array signal) (PHF13): 0.6011
- Array Heatmap value (peptide array signal) (TRIM66 (PB)): 0.6188
- Array Heatmap value (peptide array signal) (ING1): 0.5173
- Array Heatmap value (peptide array signal) (RAG2): 0.2325
- Array Heatmap value (peptide array signal) (MORC3 (CW)): 0.3496
- Array Heatmap value (peptide array signal) (PHF2): 0.5233
- Array Heatmap value (peptide array signal) (ING4): 0.4357
- Array Heatmap value (peptide array signal) (SP140L): 0.3378
- Array Heatmap value (peptide array signal) (AIRE (PP)): 0.4047

Substance: H3.3K27hxo (15-34): H3.3 15-34
- Array Heatmap value (peptide array signal) (CHD5 (PCC)): 0.595
- Array Heatmap value (peptide array signal) (BPTF (PB)): 0.2696
- Array Heatmap value (peptide array signal) (TAF3): 0.2046
- Array Heatmap value (peptide array signal) (ING5): 0.2604
- Array Heatmap value (peptide array signal) (PHF23): 0.4877
- Array Heatmap value (peptide array signal) (PHF21A): 0.3552
- Array Heatmap value (peptide array signal) (KDM5A (3)): 0.3948
- Array Heatmap value (peptide array signal) (ING3): 0.3628
- Array Heatmap value (peptide array signal) (KDM5A (1)): 0.3701
- Array Heatmap value (peptide array signal) (BAZ2B): 0.3359
- Array Heatmap value (peptide array signal) (KDM7A): 0.2316
- Array Heatmap value (peptide array signal) (PHF8): 0.2775
- Array Heatmap value (peptide array signal) (DIDO1): 0.6054
- Array Heatmap value (peptide array signal) (ING2): 0.5803
- Array Heatmap value (peptide array signal) (MLL5): 0.4892
- Array Heatmap value (peptide array signal) (KDM5B (1)): 0.5964
- Array Heatmap value (peptide array signal) (KDM4C (TTP)): 0.3245
- Array Heatmap value (peptide array signal) (CHD5 (PPCC)): 0.3985
- Array Heatmap value (peptide array signal) (CHD4 (PPCC)): 0.4698
- Array Heatmap value (peptide array signal) (DPF2 (PPC2W2)): 0.5523
- Array Heatmap value (peptide array signal) (PHRF1 (RP)): 0.3528
- Array Heatmap value (peptide array signal) (KDM5B (3)): 0.3693
- Array Heatmap value (peptide array signal) (PHF13): 0.4541
- Array Heatmap value (peptide array signal) (TRIM66 (PB)): 0.4904
- Array Heatmap value (peptide array signal) (ING1): 0.4956
- Array Heatmap value (peptide array signal) (RAG2): 0.1931
- Array Heatmap value (peptide array signal) (MORC3 (CW)): 0.2947
- Array Heatmap value (peptide array signal) (PHF2): 0.4925
- Array Heatmap value (peptide array signal) (ING4): 0.3406
- Array Heatmap value (peptide array signal) (SP140L): 0.2976
- Array Heatmap value (peptide array signal) (AIRE (PP)): 0.3038
